# Measured values taken from patent US8741906B2 (priority 2011, dated 2014).
# Read-outs that look alike come from different tables or passages of the source.
# How the values were obtained:
# human CB1 receptors = target: T1, human CB1 receptors (Homo sapiens, UniProt P21554); assay: functional cAMP assay, human CB1; format: cell-based
# T1 construct: expressed in transfected cells; host or cells: CHO cells
# Procedure, shortened: (§1)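 CHO cells expressing human CB1 or CB2 were preincubated 30 min at 30 °C in Krebs Ringer bicarbonate with 1 mM IBMX, then exposed to compound 30 min at 30 °C. cAMP quantified by TR-FRET competition (Alexa700 antibody/ruthenium-cAMP) against a 10 μM–0.13 nM standard curve; EC50 derived.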
# human CB2 receptors = target: T2, human CB2 receptors (Homo sapiens, UniProt P34972); assay: functional cAMP assay, human CB2; format: cell-based
# T2 construct: expressed in transfected cells; host or cells: CHO cells
# T2 sequence (P34972 whole entry): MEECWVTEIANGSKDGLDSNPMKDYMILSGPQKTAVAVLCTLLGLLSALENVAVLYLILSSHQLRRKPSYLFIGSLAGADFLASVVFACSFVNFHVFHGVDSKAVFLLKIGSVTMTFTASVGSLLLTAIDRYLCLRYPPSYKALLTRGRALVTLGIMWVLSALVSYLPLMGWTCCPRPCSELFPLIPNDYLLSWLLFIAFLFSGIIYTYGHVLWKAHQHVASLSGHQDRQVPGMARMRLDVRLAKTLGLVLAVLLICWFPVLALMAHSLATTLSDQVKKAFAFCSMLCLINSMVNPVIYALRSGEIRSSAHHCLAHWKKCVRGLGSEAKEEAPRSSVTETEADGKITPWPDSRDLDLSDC
# Procedure, shortened: as §1
# [1] = CHO cells expressing human CB1, cAMP, read-out: human CB1 EC50
# [2] = CHO cells expressing human CB2, cAMP, read-out: human CB2 EC50
# T1 sequence (P21554 whole entry): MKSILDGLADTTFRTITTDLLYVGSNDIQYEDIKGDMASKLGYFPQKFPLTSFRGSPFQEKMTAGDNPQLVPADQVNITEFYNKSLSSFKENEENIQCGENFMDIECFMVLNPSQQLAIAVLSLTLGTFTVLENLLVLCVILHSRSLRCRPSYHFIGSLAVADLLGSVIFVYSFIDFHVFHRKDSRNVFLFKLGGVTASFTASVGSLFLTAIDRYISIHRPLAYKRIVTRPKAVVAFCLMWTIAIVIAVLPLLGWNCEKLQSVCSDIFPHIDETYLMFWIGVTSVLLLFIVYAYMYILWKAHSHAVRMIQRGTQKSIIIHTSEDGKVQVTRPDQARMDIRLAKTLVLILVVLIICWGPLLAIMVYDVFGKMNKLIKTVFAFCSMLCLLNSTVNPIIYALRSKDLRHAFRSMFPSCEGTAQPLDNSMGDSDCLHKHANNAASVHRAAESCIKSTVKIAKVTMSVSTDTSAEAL
EC50 (human CB1 receptors) [nM],EC50 (human CB2 receptors) [nM],Structure (SMILES),EC50 (human CB1 receptors; [1]) [nM],EC50 (human CB2 receptors; [2]) [nM]
–,–,"Cc1nc(Cn2nnc3c(N4CCC(F)(F)C4)nc(C(C)(C)C)nc32)no1 [Example 130, 5-tert-Butyl-7-(3,3-difluoro-pyrrolidin-1-yl)-3-(5-methyl-[1,2,4]oxadiazol-3-ylmethyl)-3H-[1,2,3]triazolo[4,5-d]pyrimidine]",564,0.5
–,–,"Cn1nnnc1Cn1nnc2c(N3CCC(F)(F)C3)nc(C(C)(C)C)nc21 [Example 131, 5-tert-Butyl-7-(3,3-difluoro-pyrrolidin-1-yl)-3-(1-methyl-1H-tetrazol-5-ylmethyl)-3H-[1,2,3]triazolo[4,5-d]pyrimidine]",> 10000,0.1
–,–,"Cn1ncnc1Cn1nnc2c(N3CCC(F)(F)C3)nc(C(C)(C)C)nc21 [Example 132, 5-tert-Butyl-7-(3,3-difluoro-pyrrolidin-1-yl)-3-(2-methyl-2H-[1,2,4]triazol-3-ylmethyl)-3H-[1,2,3]triazolo[4,5-d]pyrimidine]",> 10000,0.7
–,–,"Cn1c(Cn2nnc3c(N4CCC(F)(F)C4)nc(C(C)(C)C)nc32)nnc1S(C)(=O)=O [Example 133, 5-tert-Butyl-7-(3,3-difluoro-pyrrolidin-1-yl)-3-(5-methanesulfonyl-4-methyl-4H-[1,2,4]triazol-3-ylmethyl)-3H-[1,2,3]triazolo[4,5-d]pyrimidine]",> 10000,4.4
–,–,"CN(C)c1c(Cl)cncc1Cn1nnc2c(N3CCC(F)(F)C3)nc(C(C)(C)C)nc21 [Example 134, {3-[5-tert-Butyl-7-(3,3-difluoro-pyrrolidin-1-yl)-[1,2,3]triazolo[4,5-d]pyrimidin-3-ylmethyl]-5-chloro-pyridin-4-yl}-dimethyl-amine]",234,0.3
–,–,"CC(C)(C)c1nc(N2CCC(F)(F)C2)c2nnn(Cc3c[nH]nc3C(F)(F)F)c2n1 [Example 135, 5-tert-Butyl-7-(3,3-difluoro-pyrrolidin-1-yl)-3-(3-trifluoromethyl-1H-pyrazol-4-ylmethyl)-3H-[1,2,3]triazolo[4,5-d]pyrimidine]",1400,0.4
–,–,"Cc1nonc1Cn1nnc2c(N3CC[C@H](O)C3)nc(C(C)(C)C)nc21 [Example 136, (S)-1-[5-tert-Butyl-3-(4-methyl-furazan-3-ylmethyl)-3H-[1,2,3]triazolo[4,5-d]pyrimidin-7-yl]-pyrrolidin-3-ol]",> 10000,0.2
–,–,"Cc1noc(Cn2nnc3c(N4CC[C@H](O)C4)nc(C(C)(C)C)nc32)n1 [Example 137, (S)-1-[5-tert-Butyl-3-(3-methyl-[1,2,4]oxadiazol-5-ylmethyl)-3H-[1,2,3]triazolo[4,5-d]pyrimidin-7-yl]-pyrrolidin-3-ol]",> 10000,18.2
–,–,"CC(C)(C)c1nc(N2CC[C@H](O)C2)c2nnn(Cc3ncccc3Cl)c2n1 [Example 138, (S)-1-[5-tert-Butyl-3-(3-chloro-pyridin-2-ylmethyl)-3H-[1,2,3]triazolo[4,5-d]pyrimidin-7-yl]-pyrrolidin-3-ol]",> 10000,0.4
–,–,"CC(C)(C)c1nc(N2CC[C@H](O)C2)c2nnn(Cc3nc(Cl)ccc3Cl)c2n1 [Example 139, (S)-1-[5-tert-Butyl-3-(3,6-dichloro-pyridin-2-ylmethyl)-3H-[1,2,3]triazolo[4,5-d]pyrimidin-7-yl]-pyrrolidin-3-ol]",> 10000,0.3
–,–,"CC(C)(C)c1nc(N2CC[C@H](O)C2)c2nnn(Cc3cccnc3Cl)c2n1 [Example 140, (S)-1-[5-tert-Butyl-3-(2-chloro-pyridin-3-ylmethyl)-3H-[1,2,3]triazolo[4,5-d]pyrimidin-7-yl]-pyrrolidin-3-ol]",> 10000,0.1
–,–,"CC(C)(C)c1nc(N2CC[C@H](O)C2)c2nnn(Cc3cccc(Cl)c3Cl)c2n1 [Example 141, (S)-1-[5-tert-Butyl-3-(2,3-dichloro-benzyl)-3H-[1,2,3]triazolo[4,5-d]pyrimidin-7-yl]-pyrrolidin-3-ol]",> 10000,0.5
–,–,"CC(C)(C)c1nc(N2CC[C@H](O)C2)c2nnn(Cc3ccccc3C(F)(F)F)c2n1 [Example 142, (S)-1-[5-tert-Butyl-3-(2-trifluoromethyl-benzyl)-3H-[1,2,3]triazolo[4,5-d]pyrimidin-7-yl]-pyrrolidin-3-ol]",> 10000,0.2
–,–,"CC(C)(C)c1nc(N2CC[C@H](O)C2)c2nnn(Cc3ccccc3S(C)(=O)=O)c2n1 [Example 143, (S)-1-[5-tert-Butyl-3-(2-methanesulfonyl-benzyl)-3H-[1,2,3]triazolo[4,5-d]pyrimidin-7-yl]-pyrrolidin-3-ol]",> 10000,0.1
–,–,"Cc1cc(Cn2nnc3c(N4CCC(F)(F)C4)nc(C(C)(C)C)nc32)n(C)n1 [Example 144, 5-tert-Butyl-7-(3,3-difluoro-pyrrolidin-1-yl)-3-(2,5-dimethyl-2H-pyrazol-3-ylmethyl)-3H-[1,2,3]triazolo[4,5-d]pyrimidine]",123,0.4
–,–,"Cn1nncc1Cn1nnc2c(N3CCC(F)(F)C3)nc(C(C)(C)C)nc21 [Example 145, 5-tert-Butyl-7-(3,3-difluoro-pyrrolidin-1-yl)-3-(3-methyl-3H-[1,2,3]triazol-4-ylmethyl)-3H-[1,2,3]triazolo[4,5-d]pyrimidine]",2250,0.2
–,–,"Cc1nnc(Cn2nnc3c(N4CCC(F)(F)C4)nc(C(C)(C)C)nc32)n1C [Example 146, 5-tert-Butyl-7-(3,3-difluoro-pyrrolidin-1-yl)-3-(4,5-dimethyl-4H-[1,2,4]triazol-3-ylmethyl)-3H-[1,2,3]triazolo[4,5-d]pyrimidine]",> 10000,0.5
–,–,"Cc1c(Cn2nnc3c(N4CCC(F)(F)C4)nc(C(C)(C)C)nc32)ccc[n+]1[O-] [Example 147, 5-tert-Butyl-7-(3,3-difluoro-pyrrolidin-1-yl)-3-(2-methyl-1-oxy-pyridin-3-ylmethyl)-3H-[1,2,3]triazolo[4,5-d]pyrimidine]",209,0.3
–,–,"CC(C)(C)c1nc(N2CC[C@H](O)C2)c2nnn(Cc3nccc(Cl)c3Cl)c2n1 [Example 148, (S)-1-[5-tert-Butyl-3-(3,4-dichloro-pyridin-2-ylmethyl)-3H-[1,2,3]triazolo[4,5-d]pyrimidin-7-yl]-pyrrolidin-3-ol]",> 10000,0.4
–,–,"Cc1nc(Cn2nnc3c(N4CC[C@H](O)C4)nc(C(C)(C)C)nc32)no1 [Example 149, (S)-1-[5-tert-Butyl-3-(5-methyl-[1,2,4]oxadiazol-3-ylmethyl)-3H-[1,2,3]triazolo[4,5-d]pyrimidin-7-yl]-pyrrolidin-3-ol]",> 10000,17.4
–,–,"Cc1nnc(Cn2nnc3c(N4CC[C@H](O)C4)nc(C(C)(C)C)nc32)o1 [Example 150, (S)-1-[5-tert-Butyl-3-(5-methyl-[1,3,4]oxadiazol-2-ylmethyl)-3H-[1,2,3]triazolo[4,5-d]pyrimidin-7-yl]-pyrrolidin-3-ol]",> 10000,36.3
> 10000,1.4,"Cn1nnnc1Cn1nnc2c(N3CC[C@H](O)C3)nc(C(C)(C)C)nc21 [Example 151, (S)-1-[5-tert-Butyl-3-(1-methyl-1H-tetrazol-5-ylmethyl)-3H-[1,2,3]triazolo[4,5-d]pyrimidin-7-yl]-pyrrolidin-3-ol]",–,–
